The structures appear in SMILES notation.

A word on the IC50: it is the concentration needed to halve the response being measured.

Common to all, as to format: functional, cell-based
Assay [1] deals with HeLa. In words: Cytotoxicity against human HeLa cells assessed as reduction in cell growth incubated for 48 hrs by MTT assay. (In general: Tetrazolium dyes change colour on reduction, which living cells bring about.)
The test system of assay [2] is HepG2. Description: Cytotoxicity against human HepG2 cells assessed as reduction in cell viability incubated for 24 hrs by MTT assay. As to conditions: HepG2, 24 h.
In a further assay the test system is MDA-MB-231. Description: Cytotoxicity against human MDA-MB-231 cells assessed as reduction in cell growth incubated for 48 hrs by MTT assay. The note with it: MDA-MB-231, 48 h.
The test system of the next assay is HuCC-A1. Description: Cytotoxicity against human HuCC-A1 cells assessed as reduction in cell growth incubated for 3 days by micro-titer plate reader analysis. The note with it: HuCC-A1, 72 h.
For a further assay, the system named is KB. Description: Cytotoxicity against human KB cells assessed as reduction in cell growth incubated for 3 days by micro-titer plate reader analysis. As to conditions: 72 h.
Assay [3] relates to HeLa. Description: Antiproliferative activity against human HeLa cells assessed as reduction in cell growth after 48 hrs by MTT assay.
The subject of the next assay is Ca-Ski. Description: Antiproliferative activity against human Ca-Ski cells assessed as reduction in cell growth after 48 hrs by MTT assay.
In another assay the test system is SH-SY5Y. Description: Cytotoxicity against human SH-SY5Y cells assessed as reduction in cell viability incubated for 24 hrs by MTT assay.
Assay [4] concerns HepG2. Description: Antiproliferative activity against human HepG2 cells assessed as reduction in cell viability measured for 24 hrs by MTT assay. The note with it: HepG2, 24 h.
In assay [5] the test system is HeLa. Description: Antiproliferative activity against human HeLa cells assessed as reduction in cell viability measured for 24 hrs by MTT assay.
The subject of assay [6] is HepG2. Description: Antiproliferative activity against human HepG2 cells assessed as reduction in cell viability incubated for 24 hrs ny MTT assay. The note with it: HepG2, 24 h.

Regarding `C[C@@H]1CC[C@@]2(OC1)O[C@H]1C[C@H]3[C@@H]4CC=C5C[C@@H](O[C@@H]6O[C@H](CO)[C@@H](O[C@@H]7O[C@@H](C)[C@H](O[C@@H]8O[C@@H](C)[C@H](O)[C@@H](O)[C@H]8O)[C@@H](O)[C@H]7O)[C@H](O)[C@H]6O[C@@H]6O[C@@H](C)[C@H](O)[C@@H](O)[C@H]6O)CC[C@]5(C)[C@H]4CC[C@]3(C)[C@H]1[C@@H]2C` [PENNOGENIN RAHAMNOSYL CHACOTRIOSIDE], the IC50 with HeLa [1] was 3 µM; in the assay on HepG2 [2], 6.33 µM; with MDA-MB-231, 3.1 µM; in the assay with HuCC-A1, 3 µM; with KB, 6.2 µM.

In the case of `C[C@@H]1CC[C@@]2(OC1)O[C@H]1C[C@H]3[C@@H]4CC=C5C[C@@H](O[C@@H]6O[C@H](CO)[C@@H](O[C@@H]7O[C@@H](C)[C@H](O)[C@@H](O)[C@H]7O)[C@H](O)[C@H]6O)CC[C@]5(C)[C@H]4CC[C@]3(C)[C@H]1[C@@H]2C`, the IC50 was 45.1 µM in the assay with HeLa [3] and 80 µM with Ca-Ski.

As for `CCCC(N)C(=O)O[C@H]1CC[C@@]2(C)C(=CC[C@H]3[C@@H]4C[C@@H]5O[C@]6(CC[C@@H](C)CO6)[C@@H](C)[C@@H]5[C@@]4(C)CC[C@@H]32)C1` (stereo partly drawn), the IC50 in the assay on SH-SY5Y stood at 6.9 µM.

Turning to `C[C@@H]1CC[C@@]2(OC1)O[C@H]1C[C@H]3[C@@H]4CC=C5C[C@@H](O[C@@H]6O[C@H](CO)[C@@H](O[C@@H]7O[C@@H](C)[C@H](O[C@@H]8O[C@@H](C)[C@H](O[C@@H]9O[C@@H](C)[C@H](O[C@@H]%10O[C@@H](C)[C@H](O)[C@@H](O)[C@H]%10O)[C@@H](O)[C@H]9O)[C@@H](O)[C@H]8O)[C@@H](O)[C@H]7O)[C@H](O)[C@H]6O[C@@H]6O[C@@H](C)[C@H](O)[C@@H](O)[C@H]6O)CC[C@]5(C)[C@H]4CC[C@]3(C)[C@H]1[C@@H]2C`, in the assay with HepG2 [2], the IC50 came out at 13.4 µM.

With `C[C@@H]1CC[C@@]2(OC1)O[C@H]1C[C@H]3[C@@H]4CC=C5C[C@@H](OC(=O)[C@@H](N)Cc6ccccc6)CC[C@]5(C)[C@H]4CC[C@]3(C)[C@H]1[C@@H]2C`, the concentration for half-maximal inhibition (IC50) in the assay on SH-SY5Y is 11.2 µM.

Take `C[C@@H]1CC[C@@]2(OC1)O[C@H]1C[C@H]3[C@@H]4CC=C5C[C@@H](O[C@@H]6O[C@H](CO)[C@@H](O[C@@H]7O[C@@H](CO)[C@H](O)[C@H]7O)[C@H](O)[C@H]6O[C@@H]6O[C@@H](C)[C@H](O)[C@@H](O)[C@H]6O)CC[C@]5(C)[C@H]4CC[C@]3(C)[C@H]1[C@@H]2C`: the IC50 in the assay on HepG2 [2] came to 12.2 µM.

In the case of `C[C@@H]1CC[C@@]2(OC1)O[C@H]1C[C@H]3[C@@H]4CC=C5C[C@@H](O[C@@H]6O[C@H](CO)[C@@H](O)[C@H](O)[C@H]6O[C@@H]6O[C@@H](C)[C@H](O)[C@@H](O)[C@H]6O)CC[C@]5(C)[C@H]4CC[C@]3(C)[C@H]1[C@@H]2C` [OPHIOPOGONIN C], the half-maximal inhibitory concentration (IC50) amounted to 3.7 µM with HeLa [1]; 2.92 µM with HepG2 [2]; 3.5 µM with MDA-MB-231; 5.8 µM in the assay with HuCC-A1; 4.2 µM with KB.

Take `C[C@H](CC[C@H]1O[C@H]2C[C@H]3[C@@H]4CC=C5C[C@@H](OC6=C(Cl)C(=O)c7ccccc7C6=O)CC[C@]5(C)[C@H]4CC[C@]3(C)[C@H]2[C@@H]1C)COC1=C(Cl)C(=O)c2ccccc2C1=O`: the IC50 in the assay with HepG2 [4] was 1.76 µM; in the assay on HeLa [5], 6.27 µM.

Regarding `Cc1ccc2c(n1)C(=O)C(Cl)=C(O[C@H]1CC[C@@]3(C)C(=CC[C@H]4[C@@H]5C[C@@H]6O[C@H](CC[C@@H](C)CO)[C@@H](C)[C@@H]6[C@@]5(C)CC[C@@H]43)C1)C2=O`, the IC50 came to 5.36 µM in the assay with HepG2 [4] and 15.6 µM in the assay on HeLa [5].

On to `C[C@@H]1CC[C@@]2(OC1)O[C@H]1C[C@H]3[C@@H]4CC=C5C[C@@H](O[C@@H]6O[C@H](CO)[C@@H](O[C@@H]7O[C@H](CO)[C@@H](O[C@@H]8O[C@@H](C)[C@H](O)[C@@H](O)[C@H]8O)[C@H](O)[C@H]7O)[C@H](O)[C@H]6O[C@@H]6O[C@@H](C)[C@H](O)[C@@H](O)[C@H]6O)CC[C@]5(C)[C@H]4CC[C@]3(C)[C@H]1[C@@H]2C`, for which the IC50 with HeLa [1] is 0.7 µM; in the assay on MDA-MB-231 it was 0.9 µM; in the assay on HuCC-A1 it was 2.6 µM; in the assay on KB it was 0.9 µM.

Take `CC[C@H](C)[C@H](NC(=O)OC(C)(C)C)C(=O)O[C@H]1CC[C@@]2(C)C(=CC[C@H]3[C@@H]4C[C@@H]5O[C@]6(CC[C@@H](C)CO6)[C@@H](C)[C@@H]5[C@@]4(C)CC[C@@H]32)C1`: in the assay on SH-SY5Y, the IC50 was determined as 18.5 µM.

With `CC(C)C[C@H](NC(=O)OC(C)(C)C)C(=O)O[C@H]1CC[C@@]2(C)C(=CC[C@H]3[C@@H]4C[C@@H]5O[C@]6(CC[C@@H](C)CO6)[C@@H](C)[C@@H]5[C@@]4(C)CC[C@@H]32)C1`, in the assay on SH-SY5Y, the IC50 turned out to be 9.5 µM.

Take `C[C@H](CC[C@H]1O[C@H]2C[C@H]3[C@@H]4CC=C5C[C@@H](O[Si](C)(C)C(C)(C)C)CC[C@]5(C)[C@H]4CC[C@]3(C)[C@H]2[C@@H]1C)COC1=C(Cl)C(=O)c2ncccc2C1=O`: the IC50 in the assay with HepG2 [6] was found to be 19.7 µM.

Take `C[C@H](CC[C@H]1O[C@H]2C[C@H]3[C@@H]4CC=C5C[C@@H](OC6=C(Cl)C(=O)c7ncccc7C6=O)CC[C@]5(C)[C@H]4CC[C@]3(C)[C@H]2[C@@H]1C)CO[Si](C)(C)C(C)(C)C`: the values for the IC50 in the assay with HepG2 [4] and in the assay on HeLa [5] were 12.2 µM and 12.4 µM, respectively.

In the case of `C[C@@H]1CC[C@@]2(OC1)O[C@H]1C[C@H]3[C@@H]4CC=C5C[C@@H](OC(=O)CN(C)C(=O)OC(C)(C)C)CC[C@]5(C)[C@H]4CC[C@]3(C)[C@H]1[C@@H]2C`, the IC50 in the assay with SH-SY5Y came out at 15.2 µM.

`C[C@@H]1CC[C@@]2(OC1)O[C@H]1C[C@H]3[C@@H]4CC=C5C[C@@H](O[C@@H]6O[C@H](CO)[C@@H](O[C@@H]7O[C@H](CO)[C@@H](O)[C@H](O)[C@H]7O)[C@H](O)[C@H]6O[C@@H]6O[C@@H](C)[C@H](O)[C@@H](O)[C@H]6O)CC[C@]5(C)[C@H]4CC[C@]3(C)[C@H]1[C@@H]2C` [DELTONIN]: the IC50 in the assay on HeLa [1] was 0.9 µM; in the assay on MDA-MB-231, 1.1 µM; in the assay with HuCC-A1, 3.4 µM; in the assay on KB it was 1.2 µM.

On to `C[C@@H]1CC[C@@]2(OC1)O[C@H]1C[C@H]3[C@@H]4CC=C5C[C@@H](OC(=O)[C@@H]6CCCN6)CC[C@]5(C)[C@H]4CC[C@]3(C)[C@H]1[C@@H]2C`, for which the IC50 in the assay with SH-SY5Y was found to be 7.2 µM.

As for `CC(=O)O[C@H]1CC[C@@]2(C)C(=CC[C@H]3[C@@H]4C[C@@H]5O[C@H](CC[C@@H](C)COC6=C(Cl)C(=O)c7ccccc7C6=O)[C@@H](C)[C@@H]5[C@@]4(C)CC[C@@H]32)C1`, the IC50 with HepG2 [6] was 13.5 µM.

On to `C[C@H](CC[C@H]1O[C@H]2C[C@H]3[C@@H]4CC=C5C[C@@H](OC6=C(Cl)C(=O)c7ccccc7C6=O)CC[C@]5(C)[C@H]4CC[C@]3(C)[C@H]2[C@@H]1C)CO[Si](C)(C)C(C)(C)C`, for which the results for the IC50 in the assay on HepG2 [4] and with HeLa [5] were 3.52 µM and 9.69 µM, respectively.

The values are drawn from ChEMBL document CHEMBL6127100, “Plant based steroidal and triterpenoid sapogenins: Chemistry on diosgenin and biological aspects” (Eur J Med Chem, 2024).
